Measurements taken from the supplement of paper PMC10307832.

Key:
Test in all cases: relative viability (nuclei count vs DMSO), 5 days (fraction); higher = more cells survive
[1] = compound: CC1=CC(=CC=C1)NC2=NC(=CS2)C3=CC=NC=C3 + Nc1ncn([C@H]2C[C@H](O)[C@@H](CO)O2)c(=O)n1 [Decitabine] (partner 2 µM)
How it was run: (§1)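 Dosing by pin tool came one day after lung cancer cell lines were seeded in 1536-well plates, using either one drug or a fixed anchor-drug dose plus five library-drug doses (not always all listed) in √10 steps. After 5 days, nuclei were counted on 4× images. Relative viability is treated-well nuclei count divided by vehicle-well nuclei count, and values are medians of duplicate plates.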

[2] = compound: CC1=CC(=CC=C1)NC2=NC(=CS2)C3=CC=NC=C3 + CC(=O)Nc1cccc(-n2c(=O)n(C3CC3)c(=O)c3c(Nc4ccc(I)cc4F)n(C)c(=O)c(C)c32)c1 [Trametinib] (partner 0.02 µM)
How it was run: as §1

Masitinib + Navitoclax = compound: Cc1ccc(NC(=O)c2ccc(CN3CCN(C)CC3)cc2)cc1Nc1nc(-c2cccnc2)cs1 [Masitinib] + CC1(C)CCC(c2ccc(Cl)cc2)=C(CN2CCN(c3ccc(C(=O)NS(=O)(=O)c4ccc(N[C@H](CCN5CCOCC5)CSc5ccccc5)c(S(=O)(=O)C(F)(F)F)c4)cc3)CC2)C1 [Navitoclax] (partner 0.5 µM)
How it was run: as §1

[3] = compound: CC1=CC(=CC=C1)NC2=NC(=CS2)C3=CC=NC=C3 + N=C(N)NC(=N)NCCc1ccccc1 [Phenformin] (partner 250 µM)
How it was run: as §1

Cell Line | relative viability ([1]; first compound 0.08 µM) | relative viability ([1]; first compound 0.253 µM) | relative viability ([1]; first compound 0.8 µM) | relative viability ([1]; first compound 2.53 µM) | relative viability ([1]; first compound 8 µM) | relative viability ([2]; first compound 0.08 µM) | relative viability ([2]; first compound 0.253 µM) | relative viability ([2]; first compound 0.8 µM) | relative viability ([2]; first compound 2.53 µM) | relative viability ([2]; first compound 8 µM) | relative viability (Masitinib + Navitoclax; first compound 0.01 µM) | relative viability (Masitinib + Navitoclax; first compound 0.03162 µM) | relative viability (Masitinib + Navitoclax; first compound 0.1 µM) | relative viability (Masitinib + Navitoclax; first compound 0.3162 µM) | relative viability (Masitinib + Navitoclax; first compound 1 µM) | relative viability ([3]; first compound 0.08 µM) | relative viability ([3]; first compound 0.253 µM) | relative viability ([3]; first compound 0.8 µM) | relative viability ([3]; first compound 2.53 µM) | relative viability ([3]; first compound 8 µM)
ChaGo-K-1 | 0.528 | 0.528 | 0.519 | 0.522 | 0.499 | 0.903 | 0.882 | 0.858 | 0.929 | 0.839 | 1.36 | 0.979 | 1.31 | 1.1 | 0.839 | 0.445 | 0.439 | 0.5 | 0.409 | 0.464
COR-L23 | 0.404 | 0.378 | 0.429 | 0.379 | 0.388 | 0.44 | 0.598 | 0.59 | 0.568 | 0.567 | 1.13 | 0.892 | 1.19 | 1.29 | 1.14 | 0.414 | 0.378 | 0.443 | 0.377 | 0.406
COR-L 105 | 0.648 | 0.691 | 0.624 | 0.572 | 0.533 | 0.442 | 0.465 | 0.454 | 0.424 | 0.38 | 0.747 | 0.688 | 0.781 | 0.926 | 0.774 | 0.429 | 0.495 | 0.534 | 0.388 | 0.496
LK-2 | 0.298 | 0.273 | 0.304 | 0.204 | 0.563 | 0.817 | 0.806 | 0.951 | 0.772 | 1.33 | 1.01 | 0.855 | 1.06 | 1.21 | 0.885 |  | 0.365 | 0.584 |  | 0.44
201T | 0.898 | 0.904 | 0.909 | 0.937 | 0.827 | 0.75 | 0.76 | 0.76 | 0.778 | 0.659 | 0.954 | 1.2 | 1.08 | 1.21 | 1.19 | 0.389 | 0.38 | 0.44 | 0.375 | 0.433
HCC-44 | 0.88 | 0.788 | 0.834 | 0.767 | 0.826 | 0.939 | 0.847 | 0.701 | 0.687 | 0.695 | 0.84 | 0.84 | 0.952 | 0.806 | 0.977 | 0.128 | 0.198 | 0.3 | 0.171 | 0.294
NCI-H647 | 0.3 | 0.437 | 0.443 | 0.365 | 0.436 | 0.408 | 0.379 | 0.387 | 0.424 | 0.279 | 1.14 | 1.1 | 1.08 | 1.23 | 1.09 | 0.413 | 0.489 | 0.5 | 0.534 | 0.515
H3255 | 0.576 | 0.506 | 0.581 | 0.601 | 0.553 | 0.597 | 0.602 | 0.569 | 0.585 | 0.403 | 0.441 | 0.409 | 0.496 | 0.351 | 0.409 | 0.372 | 0.374 | 0.365 | 0.4 | 0.414
